{
  "source": "patent US11970497B2",
  "about": "“Tricyclic AKR1C3 dependent KARS inhibitors” (Novartis AG, priority 2019, dated 2024)",
  "data": [
    {"tested_on": "H460 (NRF2 pathway mutant cell line with high AKR1C3 expression)", "experiment": "In vitro cell proliferation assay (CellTiter-Glo), H460", "format": "cell-based", "settings": "Homo sapiens, NCI-H460, 72 h, read-out: H460 Qualified absolute AC50", "text": "(§1) Cellular Proliferation Assay to Assess Compounds Activity in H460 (NRF2 Pathway Mutant Cell Line with High AKR1C3 Expression) and Hara (NRF2 Pathway Wild Type Cell Line with Low AKR1C3 Expression).\n(§2) The cell lines A549 and H460 are NRF2 pathway mutant and specifically contain genetic alterations in KEAP1 (A549: G333C, H460: D236H) (Singh A. et al., 2006 PLoS Medicine 3(10) e420). In these cell lines the NRF2 pathway is constitutively active and these cells express high levels of NRF2 protein and NRF2 pathway target gene AKR1C3. […] They have low AKR1C3 expression.\n(§3) In Vitro Cell Proliferation Assay\n(§4) Day 1, for H460 800 cells/well or 40 μL of 2×10^4 cells/mL and for Hara 2000 cells/well or 40 μL of 5×10^4 cells/mL medium (RPMI-1640 supplemented with 10% fetal bovine serum and 1% penicillin/streptomycin) were seeded into 384-well tissue culture plates. Day 2, compounds were serially diluted 1:5 to generate 8 point dose response curves and added to cells for a final top concentration of 10 μM. DMSO (1%) control and MG132 (30 μM) controls are added in columns 23 and 24 respectively on each plate for positive and negative control. After incubation for 3 days at 37° C./5% CO2, 30 μl of CellTiter-Glo reagent (Promega) was added and the plates were incubated for 10 min on plate shaker. The amount of luminescence was determined using a Perkin Elmer Envision plate reader. CellTiter-Glo luminescence values of cells treated with DMSO and MG132 controls were used to normalize the data and calculate percentage activity and AC50s of compounds using the Helios Software suite.", "units": {"AC50": "nM"}, "values": [
      {"smiles": "O=C1CC2(CCN(C(=O)NCc3ccc(OP(=O)(O)O)cc3)CC2)Nc2ccc(F)cc21", "note": "[Example 4, 4-((6′-fluoro-4′-oxo-3′,4′-dihydro-1′H-spiro[piperidine-4,2′-quinoline]-1-carboxamido)methyl)phenyl dihydrogen phosphate]", "AC50": 6}
    ]},
    {"tested_on": "H460 (NRF2 pathway mutant cell line with high AKR1C3 expression)", "experiment": "In vitro cell proliferation assay (CellTiter-Glo), H460", "format": "cell-based", "settings": "Homo sapiens, NCI-H460, 72 h; H460 cells, 3 days, CellTiter-Glo, top concentration 10 μM; read-out: H460 Qualified absolute AC50", "text": "as §1, §2, §3, §4", "units": {"AC50": "nM"}, "values": [
      {"smiles": "CC(O)CNC(=O)c1cc(CNC(=O)N2CCC3(CC2)CC(=O)c2cc(F)ccc2N3C)ccc1F", "note": "(racemic) [Example 88, 6′-fluoro-N-(4-fluoro-3-((2-hydroxypropyl)carbamoyl)benzyl)-1′-methyl-4′-oxo-3′,4′-dihydro-1′H-spiro[piperidine-4,2′-quinoline]-1-carboxamide]", "AC50": 421},
      {"smiles": "Cc1occc1CNC(=O)N1CCC2(CC1)C[C@@H](O)c1cc(F)ccc1N2", "note": "(single isomer, unassigned) [Example 169]", "AC50": 8},
      {"smiles": "Nc1ccc(CNC(=O)N2CCC3(CC2)C[C@@H](O)c2cc(F)ccc2N3)cc1F", "note": "(single isomer, unassigned) [Example 170a]", "AC50": 11},
      {"smiles": "Nc1ccc(CNC(=O)N2CCC3(CC2)C[C@H](O)c2cc(F)ccc2N3)cc1F", "note": "(single isomer, unassigned) [Example 170b]", "AC50": "≥ 17300"},
      {"smiles": "Cc1ccc(CNC(=O)N2CCC3(CC2)CC(=O)c2cc(F)ccc2N3)o1", "note": "[Example 1, 6′-fluoro-N-((5-methylfuran-2-yl)methyl)-4′-oxo-3′,4′-dihydro-1′H-spiro[piperidine-4,2′-quinoline]-1-carboxamide]", "AC50": 143},
      {"smiles": "Cc1ccc(CNC(=O)N2CCC3(CC2)CC(=O)c2cc(F)ccc2N3C)o1", "note": "[Example 7, 6′-fluoro-1′-methyl-N-((5-methylfuran-2-yl)methyl)-4′-oxo-3′,4′-dihydro-1′H-spiro[piperidine-4,2′-quinoline]-1-carboxamide]", "AC50": 10},
      {"smiles": "O=C1CC2(CCN(C(=O)NCc3ccc(Cl)o3)CC2)Nc2ccc(F)cc21", "note": "[Example 22, N-((5-chlorofuran-2-yl)methyl)-6′-fluoro-4′-oxo-3′,4′-dihydro-1′H-spiro[piperidine-4,2′-quinoline]-1-carboxamide]", "AC50": 37},
      {"smiles": "CN1c2ccc(F)cc2C(=O)CC12CCN(C(=O)NCc1ccc(F)c(NCC3COCCO3)c1)CC2", "note": "(centres unmarked) [Example 31, N-(3-(((1,4-dioxan-2-yl)methyl)amino)-4-fluorobenzyl)-6′-fluoro-1′-methyl-4′-oxo-3′,4′-dihydro-1′H-spiro[piperidine-4,2′-quinoline]-1-carboxamide]", "AC50": 64},
      {"smiles": "O=C(NCc1ccc(CO)cc1)c1cc(CNC(=O)N2CCC3(CC2)CC(=O)c2cc(F)ccc2N3)ccc1F", "note": "[Example 32, 6′-fluoro-N-(4-fluoro-3-((4-(hydroxymethyl)benzyl)carbamoyl)benzyl)-4′-oxo-3′,4′-dihydro-1′H-spiro[piperidine-4,2′-quinoline]-1-carboxamide]", "AC50": 64},
      {"smiles": "Cc1coc(C)c1CNC(=O)N1CCC2(CC1)CC(=O)c1cc(F)ccc1N2", "note": "[Example 34, N-((2,4-dimethylfuran-3-yl)methyl)-6′-fluoro-4′-oxo-3′,4′-dihydro-1′H-spiro[piperidine-4,2′-quinoline]-1-carboxamide]", "AC50": 75},
      {"smiles": "O=C1CC2(CCN(C(=O)NCc3cn[nH]c3)CC2)Nc2ccc(F)cc21", "note": "[Example 37, N-((1H-pyrazol-4-yl)methyl)-6′-fluoro-4′-oxo-3′,4′-dihydro-1′H-spiro[piperidine-4,2′-quinoline]-1-carboxamide]", "AC50": 81},
      {"smiles": "CN1CCN(C(=O)C(C)(C)CNc2cc(CNC(=O)N3CCC4(CC3)CC(=O)c3cc(F)ccc3N4C)ccc2F)CC1", "note": "[Example 44, N-(3-((2,2-dimethyl-3-(4-methylpiperazin-1-yl)-3-oxopropyl)amino)-4-fluorobenzyl)-6′-fluoro-1′-methyl-4′-oxo-3′,4′-dihydro-1′H-spiro[piperidine-4,2′-quinoline]-1-carboxamide]", "AC50": 99},
      {"smiles": "COCCNC(=O)c1cc(CNC(=O)N2CCC3(CC2)CC(=O)c2cc(F)ccc2N3C)ccc1F", "note": "[Example 58, 6′-fluoro-N-(4-fluoro-3-((2-methoxyethyl)carbamoyl)benzyl)-1′-methyl-4′-oxo-3′,4′-dihydro-1′H-spiro[piperidine-4,2′-quinoline]-1-carboxamide]", "AC50": 181}
    ]}
  ]
}
